Legend:
[1] = tested on: H1 human embryonic stem cells; assay: Analog screening with GDF-8 and growth factor/agonist pool (Example 8, Tables 7 and 8); assay type: cell-based
Procedure: Briefly, clusters of H1 human embryonic stem cells were grown on reduced growth factor […]™ (Invitrogen; Cat #356231)-coated tissue culture plastic. Cells were passaged using collagenase (Invitrogen; Cat #17104-019) treatment and gentle scraping, washed to remove residual enzyme, and plated with even dispersal at a ratio of 1:1 (surface area) on reduced growth factor […]™-coated 96-well black plates (Packard ViewPlates; PerkinElmer; Cat #6005182) using volumes of 100 μl/well. Cells were allowed to attach as clusters and then recover log phase growth over a 1 to 3 day period, feeding daily with MEF conditioned medium supplemented with 8 ng/ml bFGF (R&D Systems; Cat #233-FB). Plates were maintained at 37° C., 5% CO2 in a humidified box throughout the duration of assay. Growth factors purchased from R&D Systems were EGF (Cat #236-EG), FGF4 (Cat #235-F4), PDGF-A (Cat #221-AA), PDGF-D (Cat #1159-SB), PDGF-A/B (Cat #222-AB). […] Screening was conducted using a library of compounds that were made available as 5 mM stocks in 96-well plate format, solubilized in 100% DMSO (Sigma; Cat #D2650) and stored at −80° C. The compounds were further diluted to an intermediate concentration of 0.2 mM in 50 mM HEPES (Invitrogen; Cat #15630-080), 20% DMSO and stored at 4° C. Test conditions were performed in single wells, feeding on alternate days over a four-day assay period. Primary screening assays were initiated by aspirating culture medium from each well followed by three washes in PBS (Invitrogen; Cat #14190) to remove residual growth factors and serum. On the first day of assay, test volumes of 200 μl per well were added back containing DMEM:F12 base medium (Invitrogen; Cat #11330-032) supplemented with 0.5% FCS (HyClone; […] Cat #1324-WN) plus 2.5 μM compound. All remaining growth factors were tested at a final assay concentration of 50 ng/ml (EGF, FGF4, PDGF-A, PDGF-A/B, VEGF) with the exception of GDF-8 tested at 25 ng/ml. […] Cat #120-14). […] All remaining growth factors were tested at a final assay concentration of 50 ng/ml (EGF, FGF4, PDGF-A, PDGF-A/B, VEGF) with the exception of GDF-8 tested at 25 ng/ml. […] Cat #120-14). Negative control samples contained DMEM:F12 base medium supplemented with 2% FCS. […] At the conclusion of four-days of culture, assay plates were washed twice with PBS (Invitrogen; Cat #14190), fixed with 4% paraformaldehyde (Alexis Biochemical; Cat #ALX-350-011) at room temperature for 20 minutes, then washed three times with PBS and permeabilized with 0.5% Triton X-100 (Sigma; Cat #T8760-2) for 20 minutes at room temperature. Cells were washed again three times with PBS and blocked with 4% chicken serum (Invitrogen; Cat #16110082) in PBS for 30 minutes at room temperature. Primary antibody (goat anti-human SOX17; R&D Systems; Cat #AF1924) was diluted 1:100 in 4% chicken serum and added to each well for one hour at room temperature. Alexa Fluor 488 conjugated secondary antibody (chicken anti-goat IgG; Molecular Probes; Cat #AZ1467) was diluted 1:200 in PBS and added to each sample well after washing three times with PBS. To counterstain nuclei, 4 μg/ml Hoechst 33342 (Invitrogen; Cat #H3570) was added for ten minutes at room temperature. Plates were washed once with PBS and left in 100 μl/well PBS for imaging. Imaging was performed using an IN Cell Analyzer 1000 (GE Healthcare) utilizing the 51008bs dichroic for cells stained with Hoechst 33342 and Alexa Fluor 488. Exposure times were optimized from positive control wells and from untreated negative control wells stained with secondary antibody alone. Images from 15 fields per well were acquired to compensate for any cell loss during the bioassay and subsequent staining procedures. […] Segmentation for the nuclei was determined based on gray-scale levels (baseline range 100-300) and nuclear size. Averages and standard deviations were calculated for each replicate data set. […]

[2] = tested on: H1 human embryonic stem cells; assay: Analogue screening in combination with only GDF-8, SOX17 (Example 21, Tables 18 and 19); assay type: cell-based; design: Sox17 Expression: % of positive control / Cell Number: % of positive control: tested at 2.5 µM; conditions: compound in combination with GDF8; for Cell Number: Average Total Cell Number / Sox17 Expression: Average Total Intensity: four assay plates; for Cell Number: % of positive control / Sox17 Expression: % of positive control: relative to Activin A/Wnt3a of the same plate
Procedure: Briefly, clusters of H1 human embryonic stem cells were grown on reduced growth factor Matrigel™ (Invitrogen; Cat #356231)-coated tissue culture plastic. Cells were passaged using collagenase (Invitrogen; Cat #17104-019) treatment and gentle scraping, washed to remove residual enzyme, and plated with even dispersal at a ratio of 1:1 (surface area) on reduced growth factor […]™ (BD Biosciences; Cat #356231)-coated 96-well black plates (Packard ViewPlates; PerkinElmer; Cat #6005182) using volumes of 100 μl/well. Cells were allowed to attach and then recover log phase growth over a 1 to 3 day time period, feeding daily with MEF conditioned medium supplemented with 8 ng/ml bFGF (R&D Systems; Cat #233-FB). Plates were maintained at 37° C., 5% CO2 in a humidified box throughout the duration of assay.
Screening was conducted using a library of the analogue compounds. Compounds from this library were made available as 5 mM stocks in 96-well plate format, solubilized in 100% DMSO (Sigma; Cat #D2650) and stored at −80° C. The library compounds were further diluted to an intermediate concentration of 0.2 mM in 50 mM HEPES (Invitrogen; Cat #15630-080), 20% DMSO and stored at 4° C. Test conditions were performed in triplicate, feeding on alternating days over a four-day assay period. Assays were initiated by aspirating culture medium from each well followed by three washes in PBS (Invitrogen; Cat #14190) to remove residual growth factors. On the first day of assay, test volumes of 200 μl per well were added to each well using DMEM:F12 base medium (Invitrogen; Cat #11330-032) supplemented with 0.5% FCS (HyClone; Cat #SH30070.03) and 200 ng/ml GDF-8 (R&D Systems, Cat #788-G8) plus 2.5 μM compound. On the third day of assay, test volumes of 100 μl per well were added to each well using DMEM:F12 base medium supplemented with 2% FCS plus 200 ng/ml GDF-8 (R&D Systems, Cat #788-G8). Positive control samples contained the same base medium supplemented with FCS and 1000 ng/ml recombinant human activin A (PeproTech; Cat #120-14) throughout the four-day assay along with Wnt3a (20 ng/ml) on days 1 and 2. Negative control samples contained DMEM:F12 base medium supplemented with FCS, adding Wnt3a on days 1 and 2 but omitting treatment with activin A.
At the conclusion of four-days of culture, assay plates were washed twice with PBS (Invitrogen; Cat #14190), fixed with 4% paraformaldehyde (Alexis Biochemical; Cat #ALX-350-011) at room temperature for 20 minutes, then washed three times with PBS and permeabilized with 0.5% Triton X-100 (Sigma; Cat #T8760-2) for 20 minutes at room temperature. Cells were washed again three times with PBS and blocked with 4% chicken serum (Invitrogen; Cat #16110082) in PBS for 30 minutes at room temperature. Primary antibody (goat anti-human SOX17; R&D Systems; Cat #AF1924) was diluted 1:100 in 4% chicken serum and added to each well for one hour at room temperature. Alexa Fluor 488 conjugated secondary antibody (chicken anti-goat IgG; Molecular Probes; Cat #AZ1467) was diluted 1:200 in PBS and added to each sample well after washing three times with PBS. To counterstain nuclei, 4 μg/ml Hoechst 33342 (Invitrogen; Cat #H3570) was added for ten minutes at room temperature. Plates were washed once with PBS and left in 100 μl/well PBS for imaging.
Imaging was performed using an IN Cell Analyzer 1000 (GE Healthcare) utilizing the 51008bs dichroic for cells stained with Hoechst 33342 and Alexa Fluor 488. Exposure times were optimized from positive control wells and from untreated negative control wells stained with secondary antibody alone. Images from 15 fields per well were acquired to compensate for any cell loss during the bioassay and subsequent staining procedures. Measurements for total cell number and total SOX17 intensity were obtained from each well using IN Cell Developer Toolbox 1.7 (GE Healthcare) software. […]

[3] = Plate 2, compound + EGF, FGF, PDGF-A, VEGF, PDGF-D, muscimol, GDF8
[4] = Plate 2, compound + EGF, FGF, PDGF-A, VEGF, PDGF-D, muscimol, GDF8, positive control Activin A/Wnt3a
[5] = Table 8: hits with greater than 25% activity of the positive control, with GDF-8 and growth factors/agonists
[6] = Plate 1, compound + EGF, FGF, PDGF-A, VEGF, PDGF-D, muscimol, GDF8
[7] = Plate 1, compound + EGF, FGF, PDGF-A, VEGF, PDGF-D, muscimol, GDF8, positive control Activin A/Wnt3a

SMILES | Cell Number, Average Total Cell Number [1, 3] | Sox17 Expression, Average Total Intensity [1, 3] | Cell Number, % of positive control [1, 4] | Sox17 Expression, % of positive control [1, 4] | Cell Number, % of positive control [1, 5] | Sox17 Expression, % of positive control [1, 5] | Sox17 Expression, Average Total Intensity [1, 5] | Cell Number: Average Total Cell Number [2] | Sox17 Expression: Average Total Intensity [2] | Cell Number: % of positive control [2] [%] | Sox17 Expression: % of positive control [2] [%] | Cell Number, Average Total Cell Number [1, 6] | Sox17 Expression, Average Total Intensity [1, 6] | Cell Number, % of positive control [1, 7] | Sox17 Expression, % of positive control [1, 7]
CN1CCCc2cccc(c2)-c2ncnc(n2)Nc2cccc(c2)CCNC(=O)C1 [Compound 28, 18-Methyl-3,5,7,15,18,28-hexaazatetracyclo[20.3.1.1˜2,6˜0.1˜8,12˜]octacosa-1(26), 2(28), 3,5,8(27), 9,11,22,24-nonaen-16-one] | 7591 | 8.77E+07 | 48.0 % of positive control | 30.7 % of positive control | 48.0 % of positive control | 30.7 % of positive control | 8.77E+07 | 5236 | 4.03E+07 | 37.5 | 13.1 |  |  |  | 
CN1CCCC(=O)NCCc2cccc(c2)Nc2ncnc(n2)-c2cccc(c2)CCC1 [Compound 33, 20-Methyl-3,5,7,15,20,30-hexaazatetracyclo[22.3.1.1˜2,6˜0.1˜8,12˜]triaconta-1(28), 2(30), 3,5,8(29), 9,11,24,26-nonaen-16-one] | 7485 | 8.10E+07 | 47.4 % of positive control | 28.3 % of positive control | 47.4 % of positive control | 28.3 % of positive control | 8.10E+07 | 2362 | 6.60E+06 | 15.4 | 2.0 |  |  |  | 
O=C1NCCCc2cc(ccc2F)-c2ncnc(n2)Nc2cc(Cl)cc(c2)CN2CCCC1C2 (centres unmarked) [Compound 26, 10-Chloro-25-fluoro-3,5,7,14,20,31-hexaazapentacyclo[22.3.1.1˜2,6˜0.1˜8,12˜0.1˜14,18˜]hentriaconta-1(28), 2(31), 3,5,8(30), 9,11,24,26-nonaen-19-one] |  |  |  |  | 55.4 % of positive control | 33.1 % of positive control | 8.30E+07 | 4896 | 1.65E+07 | 32.6 | 4.8 | 7415 | 8.30E+07 | 55.4 % of positive control | 33.1 % of positive control
O=C1CCN2CCN(CC2)Cc2cc(ccc2Cl)Nc2ncnc(n2)-c2ccnc(c2)CCCN1 [Compound 27, 4-Chloro-1,8,10,12,17,22,26,32-octaazapentacyclo[24.2.2.1˜3,7˜1.˜9,13˜0.1˜14,18˜1]tritriaconta-3(33), 4,6,9(32), 10,12,14(31), 15,17-nonaen-23-one] | 8044 | 8.81E+07 | 50.9 % of positive control | 30.8 % of positive control | 50.9 % of positive control | 30.8 % of positive control | 8.81E+07 | 3721 | 1.19E+07 | 26.7 | 3.9 |  |  |  | 
